Data on six compounds can be found in article PMC10763615, “Identification and engineering of potent cyclic peptides with selective or promiscuous binding through biochemical profiling and bioinformatic data analysis” (RSC Chemical Biology, 2023).

Usually Kd stands for the constant that tells how readily two partners part at equilibrium.

Each structure is given as a SMILES string. Read-outs that look alike come from different tables or passages of the source. Positions of bridges follow the written chain, without caps; N, C: chain ends. Residues, ends and D or L forms follow the SMILES beside them.

What all share (assay type): binding
One assay concerns the target T1, FGF-R4 ECD (Homo sapiens, UniProt P22455).
T1 construct: DNA constructs for the extracellular domain (ECD) of human FGF-; HPC4 (C); made in house; host or cells: HEK 293-6E
T1 sequence (P22455 22-369 limits assumed): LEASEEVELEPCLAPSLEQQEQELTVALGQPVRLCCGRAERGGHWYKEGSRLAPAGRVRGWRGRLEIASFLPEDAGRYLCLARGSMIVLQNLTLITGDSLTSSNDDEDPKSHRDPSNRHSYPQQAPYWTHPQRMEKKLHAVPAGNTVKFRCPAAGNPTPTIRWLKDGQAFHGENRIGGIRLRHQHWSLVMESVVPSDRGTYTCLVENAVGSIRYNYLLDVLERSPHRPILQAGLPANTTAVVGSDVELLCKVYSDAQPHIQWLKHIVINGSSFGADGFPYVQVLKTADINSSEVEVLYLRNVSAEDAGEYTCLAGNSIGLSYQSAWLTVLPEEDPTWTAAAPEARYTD
Kind of assay: single concentration BLI of crude peptides. The conditions noted are these: read-out: KD (4). The protocol:
(§1) KD affinity binding measurements were obtained by biolayer interferometry (BLI) instruments (Fortebio Octet HTX, or Sartorius Octet RH16 using either 8 or 16 channel mode.
For single concentration binding experiments, 50 μM peptide stocks in folding buffer were diluted 1:50 in mRNA display selection buffer (PBS pH7.4 supplemented with 0.05% Tween-20 and 0.01% BSA) in either a 96 well black plate, or a 384 well tilted bottom microplate (ForteBio). Biotinylated FGF-R protein was loaded onto Streptavidin-functionalised biosensors (ForteBio) and immersed into ~1 μM peptide to obtain association kinetics curves. Dissociation kinetics curves were obtained by subsequent immersion of ligand-associated loaded sensors into a 1:50 dilution of folding buffer in mRNA display selection buffer. Fitted KD data was adjusted for concentration as determined by UPLC-CAD. […]

The target in another assay is T2, FGF-R1C ECD (Homo sapiens, UniProt P11362).
T2 sequence (P11362 22-376 limits assumed): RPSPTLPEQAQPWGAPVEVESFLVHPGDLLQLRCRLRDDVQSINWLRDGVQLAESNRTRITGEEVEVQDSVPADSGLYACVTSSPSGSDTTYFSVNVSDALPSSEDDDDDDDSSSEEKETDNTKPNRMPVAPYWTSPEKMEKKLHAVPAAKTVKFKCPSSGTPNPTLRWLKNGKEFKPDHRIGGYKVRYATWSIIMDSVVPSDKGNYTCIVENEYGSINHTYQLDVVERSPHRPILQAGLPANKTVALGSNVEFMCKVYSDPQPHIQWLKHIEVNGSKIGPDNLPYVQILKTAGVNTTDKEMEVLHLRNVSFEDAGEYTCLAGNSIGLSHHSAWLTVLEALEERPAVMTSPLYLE
The assay can be described thus: biochemical. Details: DNA constructs for the extracellular domain (ECD) of human FGF-; HPC4 (C); made in house; host or cells: HEK 293-6E. The protocol:
as §1
(§2) For single concentration binding experiments, 50 μM peptide stocks in folding buffer were diluted 1:50 in mRNA display selection buffer (PBS pH7.4 supplemented with 0.05% Tween-20 and 0.01% BSA) in either a 96 well black plate, or a 384 well tilted bottom microplate (ForteBio). Biotinylated FGF-R protein was loaded onto Streptavidin-functionalised biosensors (ForteBio) and immersed into ~1 μM peptide to obtain association kinetics curves. Dissociation kinetics curves were obtained by subsequent immersion of ligand-associated loaded sensors into a 1:50 dilution of folding buffer in mRNA display selection buffer. Fitted KD data was adjusted for concentration as determined by UPLC-CAD.
(§3) For accurate multi-concentration KD determination, dilution series of each peptide were made, and association and dissociation kinetics curves were obtained as above for each concentration to fit a multi-point KD binding model. Data collection and analysis was performed using the Octet Instrument Control […]
(§4) concentration assay kinetics curves shown in supplementary Figure S 19-24.

Another assay has as its target T3, FGF-R3C ECD (Homo sapiens, UniProt P22607).
T3 sequence (P22607 23-375 limits assumed): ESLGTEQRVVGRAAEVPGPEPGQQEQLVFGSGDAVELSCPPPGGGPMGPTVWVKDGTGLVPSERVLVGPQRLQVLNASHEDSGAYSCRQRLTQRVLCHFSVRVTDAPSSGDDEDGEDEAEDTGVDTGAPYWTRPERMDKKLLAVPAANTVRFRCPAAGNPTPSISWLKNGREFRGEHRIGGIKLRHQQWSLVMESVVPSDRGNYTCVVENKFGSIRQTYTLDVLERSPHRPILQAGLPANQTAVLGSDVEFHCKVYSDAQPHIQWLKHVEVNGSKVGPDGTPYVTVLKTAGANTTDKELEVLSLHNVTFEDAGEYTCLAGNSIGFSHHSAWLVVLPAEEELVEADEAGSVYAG
The assay can be described thus: biochemical. Also on record: DNA constructs for the extracellular domain (ECD) of human FGF-; HPC4 (C); made in house; host or cells: HEK 293-6E. The protocol: as §1, §2, §3, §4

Setting [1] is: crude T18 selection 1 (1:1:1) peptides, single concentration BLI (Table S4).
Setting [2] is: crude NNK peptides, single concentration BLI (Table S3).

Take `CSCC[C@H](NC(C)=O)C(=O)N[C@H]1CSSC[C@@H](C(=O)NCC(=O)N[C@@H](CO)C(=O)NCC(=O)N[C@@H](CO)C(=O)N[C@@H](CCC(=O)O)C(=O)N[C@@H](CCC(=O)O)C(=O)NCC(=O)N[C@@H](CO)C(=O)NCC(=O)N[C@@H](CO)C(=O)N[C@@H](CC(=O)O)C(=O)N[C@@H](Cc2ccc(O)cc2)C(=O)N[C@@H](CCCCN)C(=O)N[C@@H](CC(=O)O)C(=O)N[C@@H](CC(=O)O)C(=O)N[C@@H](CC(=O)O)C(=O)N[C@@H](CC(=O)O)C(=O)N[C@@H](CCCCN)C(N)=O)NC(=O)[C@H](CO)NC(=O)[C@H](Cc2c[nH]cn2)NC(=O)[C@H](Cc2ccccc2)NC(=O)[C@H](CC(C)C)NC(=O)[C@H](CCCNC(=N)N)NC(=O)[C@H](Cc2c[nH]c3ccccc23)NC(=O)[C@H](Cc2ccc(O)cc2)NC(=O)[C@H](Cc2ccc(O)cc2)NC(=O)[C@H](CC(C)C)NC(=O)[C@H](Cc2c[nH]cn2)NC(=O)[C@H](CCCNC(=N)N)NC(=O)[C@H](Cc2c[nH]cn2)NC1=O` (Ac-MCHRHLYYWRLFHSCGSGSEEGSGSDYKDDDDK-NH2; disulfide 2-15): the dissociation constant Kd is 0.005 µM on FGF-R4 ECD (setting [1]), greater than 10 µM at FGF-R1C ECD and greater than 10 µM at FGF-R3C ECD.

In the case of `CSCC[C@H](NC(C)=O)C(=O)N[C@H]1CSSC[C@@H](C(=O)NCC(=O)N[C@@H](CO)C(=O)NCC(=O)N[C@@H](CO)C(=O)N[C@@H](CC(=O)O)C(=O)N[C@@H](Cc2ccc(O)cc2)C(=O)N[C@@H](CCCCN)C(=O)N[C@@H](CC(=O)O)C(=O)N[C@@H](CC(=O)O)C(=O)N[C@@H](CC(=O)O)C(=O)N[C@@H](CC(=O)O)C(=O)N[C@@H](CCCCN)C(N)=O)NC(=O)[C@H](CCC(N)=O)NC(=O)[C@H](Cc2c[nH]cn2)NC(=O)[C@H](Cc2c[nH]c3ccccc23)NC(=O)[C@H](CC(C)C)NC(=O)[C@H](C)NC(=O)[C@H](CCC(=O)O)NC(=O)[C@H](Cc2ccc(O)cc2)NC(=O)[C@@H]2CCCN2C(=O)[C@H](Cc2c[nH]cn2)NC(=O)[C@H](CCCNC(=N)N)NC(=O)[C@H]([C@@H](C)O)NC(=O)[C@H](Cc2ccc(O)cc2)NC1=O` (Ac-MCYTRHPYEALWHQCGSGSDYKDDDDK-NH2; disulfide 2-15), the dissociation constant Kd on FGF-R4 ECD (setting [1]), on FGF-R1C ECD and on FGF-R3C ECD was greater than 10 µM throughout.

Take `CC[C@H](C)[C@@H]1NC(=O)[C@H](CCCCN)NC(=O)[C@H](Cc2ccc(O)cc2)NC(=O)[C@H](CC(C)C)NC(=O)[C@H](CC(C)C)NC(=O)[C@H](C)NC(=O)[C@H](Cc2ccccc2)NC(=O)[C@@H](NC(=O)[C@H](CCSC)NC(C)=O)CSSC[C@@H](C(=O)NCC(=O)N[C@@H](CO)C(=O)NCC(=O)N[C@@H](CO)C(=O)N[C@@H](CC(=O)O)C(=O)N[C@@H](Cc2ccc(O)cc2)C(=O)N[C@@H](CCCCN)C(=O)N[C@@H](CC(=O)O)C(=O)N[C@@H](CC(=O)O)C(=O)N[C@@H](CC(=O)O)C(=O)N[C@@H](CC(=O)O)C(=O)N[C@@H](CCCCN)C(N)=O)NC(=O)[C@H](CCCNC(=N)N)NC(=O)[C@H](CO)NC(=O)[C@H](CC(C)C)NC1=O` (Ac-MCFALLYKILSRCGSGSDYKDDDDK-NH2; disulfide 2-13): the Kd on FGF-R4 ECD (setting [2]), at FGF-R1C ECD and at FGF-R3C ECD was greater than 10 µM in each case.

Turning to `CSCC[C@H](NC(C)=O)C(=O)N[C@H]1CSSC[C@@H](C(=O)NCC(=O)N[C@@H](CO)C(=O)NCC(=O)N[C@@H](CO)C(=O)N[C@@H](CC(=O)O)C(=O)N[C@@H](Cc2ccc(O)cc2)C(=O)N[C@@H](CCCCN)C(=O)N[C@@H](CC(=O)O)C(=O)N[C@@H](CC(=O)O)C(=O)N[C@@H](CC(=O)O)C(=O)N[C@@H](CC(=O)O)C(=O)N[C@@H](CCCCN)C(N)=O)NC(=O)[C@H](Cc2c[nH]cn2)NC(=O)[C@H](CC(C)C)NC(=O)[C@H](Cc2ccc(O)cc2)NC(=O)[C@H](CC(C)C)NC(=O)[C@H](CCC(=O)O)NC(=O)[C@H](CCC(=O)O)NC(=O)[C@H](Cc2ccccc2)NC(=O)[C@H](CC(C)C)NC(=O)[C@H](Cc2ccccc2)NC(=O)[C@H](CCC(=O)O)NC(=O)[C@H](Cc2ccc(O)cc2)NC(=O)[C@H]([C@@H](C)O)NC1=O` (Ac-MCTYEFLFEELYLHCGSGSDYKDDDDK-NH2; disulfide 2-15), the Kd on FGF-R4 ECD (setting [1]), at FGF-R1C ECD and at FGF-R3C ECD was greater than 10 µM in each case.

For the compound `CC[C@H](C)[C@@H]1NC(=O)[C@@H]2CCCN2C(=O)[C@H](CC(C)C)NC(=O)[C@@H]2CCCN2C(=O)[C@H](Cc2c[nH]c3ccccc23)NC(=O)[C@@H]2CCCN2C(=O)[C@H](Cc2ccccc2)NC(=O)[C@H](CCCCN)NC(=O)[C@H]([C@@H](C)O)NC(=O)[C@@H](NC(=O)[C@@H](N)CCSC)CSSC[C@@H](C(=O)NCC(=O)N[C@@H](CO)C(=O)NCC(=O)N[C@@H](CO)C(=O)N[C@@H](CC(=O)O)C(=O)N[C@@H](Cc2ccc(O)cc2)C(=O)N[C@@H](CCCCN)C(=O)N[C@@H](CC(=O)O)C(=O)N[C@@H](CC(=O)O)C(=O)N[C@@H](CC(=O)O)C(=O)N[C@@H](CC(=O)O)C(=O)N[C@@H](CCCCN)C(N)=O)NC(=O)[C@H](C)NC(=O)[C@H](Cc2c[nH]c3ccccc23)NC(=O)[C@H](Cc2ccccc2)NC1=O` (H-MCTKFPWPLPIFWACGSGSDYKDDDDK-NH2; disulfide 2-15), the Kd on FGF-R4 ECD (setting [2]) is 0.346 µM; on FGF-R1C ECD, 0.545 µM; on FGF-R3C ECD, greater than 10 µM.

With `CC[C@H](C)[C@@H]1NC(=O)[C@H](CCCCN)NC(=O)[C@H](Cc2ccc(O)cc2)NC(=O)[C@H](CC(C)C)NC(=O)[C@H]([C@@H](C)CC)NC(=O)[C@H]([C@@H](C)CC)NC(=O)[C@H](CC(N)=O)NC(=O)[C@@H](NC(=O)[C@H](CCSC)NC(C)=O)CSSC[C@@H](C(=O)NCC(=O)N[C@@H](CO)C(=O)NCC(=O)N[C@@H](CO)C(=O)N[C@@H](CC(=O)O)C(=O)N[C@@H](Cc2ccc(O)cc2)C(=O)N[C@@H](CCCCN)C(=O)N[C@@H](CC(=O)O)C(=O)N[C@@H](CC(=O)O)C(=O)N[C@@H](CC(=O)O)C(=O)N[C@@H](CC(=O)O)C(=O)N[C@@H](CCCCN)C(N)=O)NC(=O)[C@H](CCCNC(=N)N)NC(=O)[C@H](CC(N)=O)NC(=O)[C@H](CCCCN)NC(=O)[C@H](CCSC)NC1=O` (Ac-MCNIILYKIMKNRCGSGSDYKDDDDK-NH2; disulfide 2-14), the Kd at FGF-R4 ECD (setting [2]), on FGF-R1C ECD and on FGF-R3C ECD was greater than 10 µM in each case.
